Laboratory results as given in the supplement of paper PMC10307832.

What was measured:
Test in all cases: relative viability (nuclei count vs DMSO), 5 days (fraction); higher = more cells survive
MK-8033 + Alpelisib = compound: Cn1cc(-c2cnc3ccc4ccc(CS(=O)(=O)NCc5ccccn5)cc4c(=O)c3c2)cn1 [MK-8033] + Cc1nc(NC(=O)N2CCC[C@H]2C(N)=O)sc1-c1ccnc(C(C)(C)C(F)(F)F)c1 [Alpelisib] (partner 2 µM)
How it was run: (§1)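 Relative viability is defined as nuclei in treated wells over nuclei in vehicle wells. Duplicate plates were run and medians reported. Lung cancer cell lines in 1536-well plates were dosed by pin tool one day after seeding, with one drug or with a fixed anchor-drug dose plus five library-drug doses (not always all listed) in √10 steps, and nuclei were counted after 5 days.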

Irinotecan + Pictilisib = compound: CCc1c2c(nc3ccc(OC(=O)N4CCC(N5CCCCC5)CC4)cc13)-c1cc3c(c(=O)n1C2)COC(=O)[C@]3(O)CC [Irinotecan] + CS(=O)(=O)N1CCN(Cc2cc3nc(-c4cccc5[nH]ncc45)nc(N4CCOCC4)c3s2)CC1 [Pictilisib] (partner 1 µM)
How it was run: as §1

RU-SKI 43 + Pemetrexed = compound: CC[C@@H](C)CNCC(=O)N1CCC2=C([C@@H]1COC3=CC=CC(=C3)C)C=CS2 [RU-SKI 43] + Nc1nc2[nH]cc(CCc3ccc(C(=O)N[C@@H](CCC(=O)O)C(=O)O)cc3)c2c(=O)[nH]1 [Pemetrexed] (partner 0.2 µM)
How it was run: as §1

Irinotecan + Foretinib = compound: CCc1c2c(nc3ccc(OC(=O)N4CCC(N5CCCCC5)CC4)cc13)-c1cc3c(c(=O)n1C2)COC(=O)[C@]3(O)CC [Irinotecan] + COc1cc2c(Oc3ccc(NC(=O)C4(C(=O)Nc5ccc(F)cc5)CC4)cc3F)ccnc2cc1OCCCN1CCOCC1 [Foretinib] (partner 0.25 µM)
How it was run: as §1

Row | Cell Line | relative viability (MK-8033 + Alpelisib; first compound 0.02 µM) | relative viability (MK-8033 + Alpelisib; first compound 0.06325 µM) | relative viability (MK-8033 + Alpelisib; first compound 0.2 µM) | relative viability (MK-8033 + Alpelisib; first compound 0.6325 µM) | relative viability (MK-8033 + Alpelisib; first compound 2 µM) | relative viability (Irinotecan + Pictilisib; first compound 0.6325 µM) | relative viability (Irinotecan + Pictilisib; first compound 2 µM) | relative viability (Irinotecan + Pictilisib; first compound 6.325 µM) | relative viability (Irinotecan + Pictilisib; first compound 20 µM) | relative viability (RU-SKI 43 + Pemetrexed; first compound 0.1 µM) | relative viability (RU-SKI 43 + Pemetrexed; first compound 0.3162 µM) | relative viability (RU-SKI 43 + Pemetrexed; first compound 1 µM) | relative viability (RU-SKI 43 + Pemetrexed; first compound 3.162 µM) | relative viability (RU-SKI 43 + Pemetrexed; first compound 10 µM) | relative viability (Irinotecan + Foretinib; first compound 0.6325 µM) | relative viability (Irinotecan + Foretinib; first compound 2 µM) | relative viability (Irinotecan + Foretinib; first compound 6.325 µM) | relative viability (Irinotecan + Foretinib; first compound 20 µM)
1 | NCI-H1437 | 0.966 | 0.905 | 0.883 | 0.941 | 0.956 | 0.366 | 0.322 | 0.184 | 0.115 | 0.318 | 0.352 | 0.328 | 0.306 | 0.295 | 0.954 | 0.616 | 0.42 | 0.368
2 | NCI-H1563 | 1.02 | 0.918 | 0.883 | 1.02 | 0.93 | 0.59 | 0.684 | 0.731 | 0.3 | 0.772 | 0.785 | 0.84 | 0.725 | 0.733 | 0.966 | 0.928 | 0.975 | 0.425
3 | NCI-H1651 | 0.888 | 0.808 | 0.931 | 0.898 | 0.982 | 0.427 | 0.425 | 0.175 | 0.108 | 0.556 | 0.701 | 0.744 | 0.557 | 0.59 | 0.593 | 0.59 | 0.295 | 0.205
4 | NCI-H1666 | 0.937 | 1.01 | 0.874 | 0.998 | 0.942 | 0.559 | 0.338 | 0.409 | 0.311 | 0.864 | 0.914 | 0.901 | 0.815 | 0.844 | 0.774 | 0.689 | 0.654 | 0.404
5 | NCI-H1734 | 0.628 | 0.57 | 0.644 | 0.654 | 0.72 | 0.298 | 0.446 | 0.16 | 0.184 | 0.44 | 0.406 | 0.426 | 0.41 | 0.407 |  | 0.52 | 0.193 | 0.187
6 | NCI-H1755 | 0.931 | 0.883 | 0.857 | 0.909 | 0.849 | 0.249 | 0.382 | 0.224 | 0.361 | 0.374 | 0.466 | 0.378 | 0.377 | 0.637 | 0.9 | 0.667 | 0.35 | 0.462
7 | NCI-H1793 | 0.608 |  | 0.54 | 0.603 | 0.816 |  | 0.259 | 0.189 | 0.29 | 1.01 | 0.995 | 0.941 | 0.772 | 1.02 |  | 0.501 | 0.226 | 0.185
8 | NCI-H1915 | 1.02 | 1 | 1.04 | 1.11 | 1.02 | 0.341 | 0.261 | 0.185 | 0.195 | 0.483 | 0.693 | 0.602 | 0.515 | 0.443 | 0.45 | 0.283 | 0.192 | 0.2
9 | NCI-H1944 | 0.82 |  | 0.747 | 0.849 | 0.873 | 0.235 | 0.251 | 0.181 | 0.214 | 0.614 | 0.711 | 0.566 | 0.619 | 0.707 | 0.655 | 0.351 | 0.198 | 0.18
10 | NCI-H1975 | 0.604 | 0.557 | 0.584 | 0.571 | 0.649 | 0.339 | 0.316 | 0.204 | 0.154 | 0.311 | 0.298 | 0.341 | 0.327 | 0.292 | 0.816 | 0.964 | 0.385 | 0.158
11 | NCI-H1993 | 0.612 | 0.611 | 0.649 | 0.714 | 0.675 | 0.695 | 0.816 | 0.628 | 0.443 | 0.59 | 0.625 | 0.558 | 0.624 | 0.465 | 0.769 | 0.663 | 0.706 | 0.644
12 | NCI-H2009 | 1.13 | 1.12 | 1.09 | 1.11 | 1.14 | 0.342 | 0.515 | 0.232 | 0.0786 | 1.06 | 1.17 | 1.14 | 1.06 | 1.08 | 0.973 | 0.688 | 0.311 | 0.16
13 | NCI-H2023 | 0.655 | 0.516 | 0.5 | 0.474 | 0.521 | 0.148 | 0.204 | 0.113 | 0.0527 | 0.249 | 0.259 | 0.286 | 0.21 | 0.243 | 0.832 | 0.842 | 0.295 | 0.116
14 | NCI-H2085 | 0.873 | 0.936 | 0.925 | 0.823 | 0.971 | 0.453 | 0.403 | 0.313 | 0.307 | 1.02 | 0.899 | 0.894 | 0.85 | 0.845 | 1.06 | 0.775 | 0.464 | 0.54
15 | NCI-H2087 | 1.15 | 1.05 | 1.05 | 1.05 | 1 | 0.311 | 0.288 | 0.233 | 0.264 | 0.684 | 0.762 | 0.714 | 0.694 | 0.692 | 0.748 | 0.326 | 0.169 | 0.192
16 | NCI-H2126 | 0.749 | 0.731 | 0.763 | 0.772 | 0.702 |  | 0.41 | 0.286 | 0.335 | 0.724 | 0.745 | 0.682 | 0.739 | 0.709 |  | 1.18 | 0.67 | 0.51
17 | NCI-H2170 | 0.652 | 0.758 | 0.691 | 0.773 | 0.772 | 0.32 | 0.242 | 0.224 | 0.157 | 0.251 | 0.297 | 0.262 | 0.275 | 0.243 | 1.01 | 0.616 | 0.252 | 0.214
18 | NCI-H2228 | 0.815 | 0.551 | 0.629 | 0.768 | 0.841 | 0.408 | 0.562 | 0.399 | 0.395 | 0.288 | 0.353 | 0.302 | 0.376 | 0.299 | 0.925 | 0.731 | 0.293 | 0.238
